Assay results reported in PMC5216742, “Discovery and characterization of a novel potent type II native and mutant BCR-ABL inhibitor (CHMFL-074) for Chronic Myeloid Leukemia (CML)” (Oncotarget, 2016).
pEC50, pIC50: −log10 of the molar value. Read-outs that look alike come from different tables or passages of the source.

Assays:
[1] = target: T1, ABL1(H396P)-phosphorylated (Homo sapiens, UniProt P00519, H396P); experiment: KinomeScan profiling; assay type: binding; settings: 1 µM CHMFL-074; read-out: % Control
T1 construct: purchased DiscoveRx (KinomeScan service)

[2] = target: T2, ABL1(Q252H)-phosphorylated (Homo sapiens, UniProt P00519, Q252H); experiment: KinomeScan profiling; assay type: binding; settings: 1 µM CHMFL-074; read-out: % Control
T2 construct: purchased DiscoveRx (KinomeScan service)

ABL1-nonphosphorylated = target: T3, ABL1-nonphosphorylated (Homo sapiens, UniProt P00519); experiment: KinomeScan profiling; assay type: binding; settings: 1 µM CHMFL-074; read-out: % Control
T3 construct: purchased DiscoveRx (KinomeScan service)

KIT(L576P) = target: T4, KIT(L576P) (Homo sapiens, UniProt P10721, L576P); experiment: KinomeScan profiling; assay type: binding; settings: 1 µM CHMFL-074; read-out: % Control
T4 construct: purchased DiscoveRx (KinomeScan service)

c-KIT = target: T5, c-KIT (Homo sapiens, UniProt P10721); experiment: Invitrogen Z'LYTE biochemical kinase assay
T5 construct: made in house
Procedure: The fluorescence resonance energy transfer-based Z'-LYTE kinase assay (Invitrogen, USA) was used to evaluate the IC50 value of CHMFL-074 for inhibition of ABL and KIT kinase. […] After 1 hour incubation, the reaction was developed and terminated, and the fluorescence measured with an automated plate reader (SpectraMax I3, USA). A dose-response curve was fitted using Prism 5.0 (GraphPad Software Inc., San Diego, CA).

HL-60 = experiment: Anti-proliferation, intact cancer cell lines; assay type: cell-based; settings: Homo sapiens, HL-60, 72 h
Procedure: (§1) The K562 (CML), KU812 (CML), MEG-01 (CML), MV4-11 (AML), MOLM14 (AML), U937 (AML), REC-1 (Human B-cell lymphoma cell), HL-60 (Human promyelocytic leukemia cells), MEC-1(CLL), CHL (Hamster lung cell), CHO (Hamster ovary cell) cell lines were obtained from American Type Culture Collection (Manassas, VA). All the cells were grown in a humidified incubator (Thermo, USA) at 37°C under 5% CO2. CHO cells were maintained in DMEM supplemented with 10% FBS, 1% penicillin/strepto-mycin. MV4-11 (AML) were grown in IMDM supplemented with 10% FBS, 1% penicillin/streptomycin. […] For suspension cells, cells were collected by spinning down at 800 rpm/min for 5 min before use.
(§2) A density of 1 × 10^4 to 2.5 × 10^4 cells/mL cells were mixed with various concentrations of compounds then 100 μL suspension was added to each well and incubated for 72 hours. Cell viability was determined using the CellTiter-Glo assay (Promega, USA) or CCK-8 assay (Beboy, China). Both assays were performed according to the manufacturer instructions. For CellTiter-Glo assay, luminescence was determined in a multi-label reader (Envision, PerkinElmer, USA). […] Data were normalized to control group (DMSO). GI50 were calculated using Prism 6.0 (GraphPad Software, San Diego, CA).

K562 [3] = experiment: Anti-proliferation, intact cancer cell lines; assay type: cell-based; settings: Homo sapiens; K562 (CML), 72 hours
Procedure: as §1, §2

KU812 [4] = experiment: Anti-proliferation, intact cancer cell lines; assay type: cell-based; settings: Homo sapiens; KU812 (CML), 72 hours
Procedure: as §1, §2

MEC-1 = experiment: Anti-proliferation, intact cancer cell lines; assay type: cell-based; settings: Homo sapiens, MEC1, 72 h
Procedure: as §1, §2

MEG-01 [5] = experiment: Anti-proliferation, intact cancer cell lines; assay type: cell-based; settings: Homo sapiens, MEG-01, 72 h
Procedure: as §1, §2

REC-1 = experiment: Anti-proliferation, intact cancer cell lines; assay type: cell-based; settings: Homo sapiens, Rec1, 72 h
Procedure: as §1, §2

U937 = experiment: Anti-proliferation, intact cancer cell lines; assay type: cell-based; settings: Homo sapiens, U-937, 72 h
Procedure: as §1, §2

K562 [6] = experiment: Colony formation assay; assay type: cell-based; settings: Homo sapiens
Procedure: (§3) In brief, 1 mL of 3% agarose combined with 1 mL KU812, MEG01, or K562 growth media was used as the bottom agar in a 6-well plate. 800 cells in 1.7 mL growth media was combined with 0.3 ml of 3% agarose solution and plated on top of the bottom layer. Cells were maintained in a humidified 5% CO2 incubator at 37°C for 15 days, and continuously treated with serially diluted CHMFL-074 in a soft agar medium. On the 15th day, the number of colonies in each well were counted and each measurement was performed in triplicate.

KU812 [7] = experiment: Colony formation assay; assay type: cell-based; settings: Homo sapiens
Procedure: as §3

MEG-01 [8] = experiment: Colony formation assay; assay type: cell-based; settings: Homo sapiens
Procedure: as §3

[9] = In vivo pharmacokinetics study; settings: male, Sprague-Dawley, plasma, rat; for MRT inf: read-out: MRT(0-∞)
Procedure: The final concentration of the stock solution was 1 mg/mL for administration. […] Each time about 0.2 mL blood was collected through the jugular vein adding heparin for anticoagulation and kept on ice. Then plasma was separated by centrifugation at 8000 rpm for 6 minutes at 2–8°C. The obtained plasma was stored at −80°C before analysis. After finishing the test, all surviving animals will be transferred to the repository or euthanasia (CO2 asphyxiation).

T5 sequence (P10721 26-976): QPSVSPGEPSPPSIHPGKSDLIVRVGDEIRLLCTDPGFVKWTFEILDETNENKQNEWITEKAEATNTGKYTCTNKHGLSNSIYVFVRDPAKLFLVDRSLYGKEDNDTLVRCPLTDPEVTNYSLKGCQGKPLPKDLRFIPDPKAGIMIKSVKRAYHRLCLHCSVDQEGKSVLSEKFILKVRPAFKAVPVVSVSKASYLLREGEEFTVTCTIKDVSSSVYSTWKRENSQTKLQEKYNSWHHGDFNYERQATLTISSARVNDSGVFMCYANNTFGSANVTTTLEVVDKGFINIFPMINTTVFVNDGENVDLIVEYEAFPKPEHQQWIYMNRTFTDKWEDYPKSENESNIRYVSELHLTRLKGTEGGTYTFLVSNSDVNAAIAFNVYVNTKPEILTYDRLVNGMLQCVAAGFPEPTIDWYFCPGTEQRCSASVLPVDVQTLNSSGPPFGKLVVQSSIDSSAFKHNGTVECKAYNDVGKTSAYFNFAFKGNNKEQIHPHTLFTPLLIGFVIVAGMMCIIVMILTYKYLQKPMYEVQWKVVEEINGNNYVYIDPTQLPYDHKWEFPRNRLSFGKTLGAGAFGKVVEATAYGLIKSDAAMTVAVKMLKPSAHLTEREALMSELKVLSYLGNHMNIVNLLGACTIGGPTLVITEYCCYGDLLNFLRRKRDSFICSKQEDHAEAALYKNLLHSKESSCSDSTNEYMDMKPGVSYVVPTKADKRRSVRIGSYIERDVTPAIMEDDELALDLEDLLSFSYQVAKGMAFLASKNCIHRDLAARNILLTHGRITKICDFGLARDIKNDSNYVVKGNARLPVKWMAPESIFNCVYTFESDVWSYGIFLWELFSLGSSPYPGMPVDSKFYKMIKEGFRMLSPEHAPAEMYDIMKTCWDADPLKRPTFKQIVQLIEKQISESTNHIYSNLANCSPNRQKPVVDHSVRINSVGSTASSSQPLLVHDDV
T4 sequence (P10721 26-976 L576P): as the sequence (P10721 26-976) above, with L551P counted along it

## Cc1ccc(NC(=O)c2ccc(CN3CCN(C)CC3)c(C(F)(F)F)c2)cc1OC1CCN(C(=O)c2cccnc2)CC1 [CHMFL-074]
[1]
  remaining binding at 1 µM: 0.3%
[2]
  remaining binding at 1 µM: 0.4%
ABL1-nonphosphorylated
  remaining binding at 1 µM: 0.25%
KIT(L576P)
  remaining binding at 1 µM: 1%
c-KIT
  fold less active against c-KIT than ABL1 kinase: about 12 fold
c-KIT; ATP 300 μM, read-out: IC50 against c-KIT
  pIC50: 6.54
HL-60
  GI50: > 10 µM
K562 [3]
  GI50: 56 nM
KU812 [4]
  GI50: 57 nM
MEC-1
  GI50: > 10 µM
MEG-01 [5]
  GI50: 18 nM
REC-1
  GI50: > 10 µM
U937
  GI50: > 10 µM
K562 [6]; 360 h, K562, soft agar, 15 days
  pEC50: 8.40
K562 [6]; K562, read-out: anti-colony formation IC50
  pIC50: 8.40
KU812 [7]; 360 h, KU812, soft agar, 15 days
  pEC50: 8.10
KU812 [7]; KU812, read-out: anti-colony formation IC50
  pIC50: 8.10
MEG-01 [8]; 360 h, MEG-01, soft agar, 15 days
  pEC50: 7.92
MEG-01 [8]; MEG-01, read-out: anti-colony formation IC50
  pIC50: 7.92
[9]; IV 1mg/kg, mean
  AUC(0-inf): 340 ng·h/mL
  AUC(0-t): 337 ng·h/mL
  Cmax: 739 ng/mL
  Tmax: 0.02 h
  half-life: 73.8 min
  MRT inf: 1.29 h
[9]; IV 1mg/kg, mean, read-out: CLz (converted)
  clearance: 49.3 mL/min/kg
[9]; IV 1mg/kg, mean, read-out: Vz
  Vd: 5.25 L/kg
[9]; PO 10 mg/kg, mean
  AUC(0-inf): 1460 ng·h/mL
  AUC(0-t): 1130 ng·h/mL
  Cmax: 190 ng/mL
  Tmax: 4 h
  half-life: 203 min
  MRT inf: 6.58 h
[9]; PO 10 mg/kg, read-out: F (bioavailability)
  bioavailability: 42.9%
